Read-outs that look alike come from different tables or passages of the source.
Experiments:
[1] = target: NS3-NS5 interaction (NS3 f.l. binding to coated 6His-NS5_270–900) (Dengue virus type 2, UniProt P14340); test: ELISA-based NS3-NS5 interaction assay; design: species or system DENV-2; conditions: for IC50: read-out: In vitro activity IC50; for reduction of NS3-NS5 interaction: at the tested concentrations; for inhibition at 100 µM: fixed concentration of 100 μM, compared with DMSO control
Protocol: Nunc Maxisorp microplates (Thermo Fisher Scientific) were coated with 400 ng/well of 6His-NS5_270–900, or GST protein as a control, in PBS for 3 h at 37 °C and then blocked with 5% (wt/v) bovine serum albumin (BSA, Merck Life Science) in PBS overnight at 4 °C. Blocked wells were incubated at room temperature (RT) for 2 h with increasing amounts of NS3 f.l. or GST–NS3_172–618. 6His-NS5_270–900-coated plates were also incubated with increasing concentration of GST, as a control. After washing with PBS containing 0.3% Tween 20 (Fisher Scientific, Waltham, MA, United States), the NS3-NS5 interaction was detected by incubating the plates with the anti-NS3 monoclonal antibody (GT2811 clone, Genetex, Irvine, CA, United States) diluted 1:6,000 in PBS + 2% (v/v) FBS (Thermo Fisher Scientific) for 1 h at RT. The unbound primary antibody was removed by further washes with PBS + 0.3% Tween 20 and the secondary goat anti-mouse HRP-conjugated antibody (GenScript Biotech) at a dilution of 1:8,000 in PBS + 2% FBS was then added. After incubation for 1 h at RT and following washes, the colorimetric substrate 3,3′,5,5′-tetramethylbenzidine (TMB, SeraCare Life Sciences, Milford, MA, United States) was added to each well and absorbance was read at 450 nm by an ELISA plate reader (Tecan Infinite 200 PRO, Mannedorf, Switzerland).
To test the inhibitory effect of compounds on NS3-NS5 interaction, 6His-NS5_270–900-coated wells were incubated with a fixed amount of NS3 f.l. (200 ng) along with increasing concentrations of test compounds or DMSO as a control. To exclude non-specific inhibition of compounds due to colloidal aggregation, the inhibitory activities of compounds were tested in the presence or the absence of 0.002% Triton X-100 (Fisher Scientific), a condition which reverses and prevents the colloidal formation of organic molecules ([McGovern et al., 2003]). All the compound concentrations were tested at least in duplicate.

DENV-2 NGC strain = test: Plaque reduction assay (PRA) in Vero cells; assay type: cell-based; conditions: for EC50: PRA in Vero cells, read-out: Antiviral activity EC50; for SI (selectivity index): ratio between CC50 and EC50
Vero cells [2] = test: MTT cytotoxicity assay; conditions: read-out: Cytotoxicity CC50; best analogues of hit 3, in-house synthesized hit 3 as control; MTT in Vero cells at 72 h
Vero cells [3] = system: Vero cells
MTT cytotoxicity assay = conditions: African green monkey, Vero cells
[4] = analogues of hit 3, in-house synthesized hit 3 as control, 50% inhibition of NS3-NS5 binding in ELISA
[5] = best analogues of hit 3, in-house synthesized hit 3 as control, NGC strain
[6] = selected hits, concentration that decreased the NS3-NS5 binding by 50% in ELISA
[7] = Dengue virus, DENV2, Vero, selected hits, 50% inhibition of viral plaque formation, DENV-2

For `O=C(NNC(=S)Nc1ccc(Cl)cc1Cl)c1ccccc1O` [Compound 51], the IC50 [1, 4] was 97.2 ± 24.3 µM.
Work on `COc1ccc(C(=O)NNC(=S)Nc2ccccc2)cc1` [Compound 52] yielded an IC50 [1, 4] of 167 ± 29 µM.
`O=C(NNC(=S)Nc1ccccc1)c1ccccc1O` [Compound 53] showed an IC50 [1, 4] of 82.7 ± 21.5 µM.
Work on `CCOC(=O)c1ccc(NC(=S)NNC(=O)c2ccccc2O)cc1` [Compound 54] yielded an IC50 [1, 4] of 31 ± 18.3 µM.
In the case of `Cc1ccc(NC(=S)NNC(=O)c2ccc(C(F)(F)F)cc2)cc1` [Compound 55], the IC50 [1, 4] is reported as 118 ± 23 µM.
`COc1ccccc1C(=O)NNC(=S)Nc1ccc(C)cc1` [Compound 56] gave an IC50 [1, 4] of 21.2 ± 3.4 µM.
Compound `Cc1ccc(NC(=S)NNC(=O)c2ccccc2)cc1` [Compound 57] has an IC50 [1, 4] of 55.6 ± 22.7 µM.
Compound `Cc1ccc(NC(=S)NNC(=O)c2ccccc2F)cc1` [Compound 58] has an IC50 [1, 4] of 21.3 ± 7.9 µM.
For `Cc1ccc(NC(=S)NNC(=O)c2ccccc2C)cc1` [Compound 59], the IC50 [1, 4] was 29 ± 6.9 µM.
Work on `Cc1ccc(NC(=S)NNC(=O)c2ccc(C)cc2)cc1` [Compound 60] yielded an IC50 [1, 4] of 149 ± 21 µM.
With `Cc1ccc(NC(=S)NNC(=O)c2cccc(O)c2)cc1` [Compound 61] the IC50 [1, 4] was > 200 µM and the “reduction of NS3-NS5 interaction” value [1] was < 50%.
For `Cc1ccc(NC(=S)NNC(=O)c2ccc(O)cc2)cc1` [Compound 62], the IC50 [1, 4] was > 200 µM and the “reduction of NS3-NS5 interaction” value [1] was < 50%.
`Cc1ccc(NC(=S)NNC(=O)c2ccc(O)cc2O)cc1` [Compound 63] gave an IC50 [1, 4] of 172 ± 31 µM.
Work on `Cc1ccc(NC(=S)NNC(=O)c2ccccn2)cc1` [Compound 64] yielded an EC50 (DENV-2 NGC strain; [5]) of 2.1 ± 1.6 µM and a CC50 (Vero cells [2]) of 39.6 ± 10.2 µM.
Compound `Cc1ccc(NC(=S)NNC(=O)c2cccs2)cc1` [Compound 65] has an IC50 [1, 4] of 64.9 ± 19.5 µM.
`CN(C)c1ccc(NC(=S)NNC(=O)c2ccccc2O)cc1` [Compound 66] gave an IC50 [1, 4] of 12.5 ± 4.1 µM.
With `O=C(NNC(=S)Nc1ccc([N+](=O)[O-])cc1)c1ccccc1O` [Compound 67] the IC50 [1, 4] was > 200 µM and the “reduction of NS3-NS5 interaction” value [1] was < 50%.
Compound `Cc1ccc(NC(=S)NNC(=O)c2ccco2)cc1` [Compound 68] has an IC50 [1, 4] of 20.1 ± 7.5 µM.
For `CN(C)c1ccc(NC(=S)NNC(=O)c2ccccn2)cc1` [Compound 69], the CC50 (Vero cells [3]) was 72 ± 17.2 µM, the “fold lower IC50 than hit 3” value ([1]; IC50 of 1.0 μM versus 15.6 μM) was 15 fold and the EC50 (DENV-2 NGC strain; [5]) was 12.4 ± 5.8 µM.
`CN(C)c1ccc(NC(=S)NNC(=O)c2cccs2)cc1` [Compound 70] gave an IC50 [1, 4] of 25.3 ± 5.4 µM.
Compound `CN(C)c1ccc(NC(=S)NNC(=O)c2ccco2)cc1` [Compound 71] has an IC50 [1, 4] of 11.6 ± 2.6 µM.
With `Cc1ccc(NC(=S)NNC(=O)c2ccc(C(C)(C)C)cc2)cc1` [Compound 72] the CC50 (Vero cells [3]) was 211 ± 20 µM and the EC50 (DENV-2 NGC strain; [5]) was 2.8 ± 1.9 µM.
In the case of `Cc1ccc(NC(=S)NNC(=O)c2ccc(C(F)(F)F)cc2C(F)(F)F)cc1` [Compound 73], the IC50 [1, 4] is reported as > 200 µM and the “reduction of NS3-NS5 interaction” value [1] is reported as < 50%.
In the case of `COc1ccc(NC(=S)NNC(=O)c2ccccc2O)cc1` [Compound 74], the IC50 [1, 4] is reported as > 200 µM and the “reduction of NS3-NS5 interaction” value [1] is reported as < 50%.
For `N#Cc1ccc(NC(=S)NNC(=O)c2ccccc2O)cc1` [Compound 75], the IC50 [1, 4] was 40.3 ± 8.3 µM.
`CC(C)(C)c1ccc(NC(=S)NNC(=O)c2ccccc2O)cc1` [Compound 76] showed an IC50 [1, 4] of 6.3 ± 2.2 µM.
For `Cc1ccc(NC(=S)NNC(=O)c2ccc(C#N)cc2)cc1` [Compound 77], the IC50 [1, 4] was > 200 µM and the “reduction of NS3-NS5 interaction” value [1] was < 50%.
For `Cc1ccc(Nc2nc(-c3ccccc3O)cs2)cc1` [Compound 78], the IC50 [1, 4] was > 200 µM and the “reduction of NS3-NS5 interaction” value [1] was < 50%.
`Cc1ccc(NC(=O)NNC(=O)c2ccccc2O)cc1` [Compound 79] showed an IC50 [1, 4] of 13.9 ± 6.5 µM.
With `O=C(NCc1nc2ccccc2[nH]1)c1ccc2[nH]nnc2c1` [Hit 1] the inhibition at 100 µM [1] was ≥ 50%, the IC50 [1, 6] was 85.9 ± 14.5 µM and the EC50 (DENV-2 NGC strain; [7]) was > 100 µM. For the same compound, the “SI (selectivity index)” value (DENV-2 NGC strain; selected hits) was >3 and the CC50 at 72 h (MTT cytotoxicity assay) was > 250 µM.
With `Cc1ccc(C(=O)Nc2cc(-c3cccc(F)c3F)n[nH]2)c(=O)[nH]1` [Hit 4] the inhibition at 100 µM [1] was ≥ 50%, the IC50 [1, 6] was 18.7 ± 2.1 µM and the EC50 (DENV-2 NGC strain; [7]) was > 10 µM. The “SI (selectivity index)” value (DENV-2 NGC strain; selected hits) was 1 and the CC50 at 72 h (MTT cytotoxicity assay) was 12.7 ± 4 µM.
For `Cc1nc(NC(=O)c2ccc(C(N)=O)cc2)sc1SCC#N` [Hit 6], the inhibition at 100 µM [1] was ≥ 50%, the IC50 [1, 6] was 51.4 ± 10.3 µM and the EC50 (DENV-2 NGC strain; [7]) was 98.8 ± 10.4 µM. The “SI (selectivity index)” value (DENV-2 NGC strain; selected hits) was >3 and the CC50 at 72 h (MTT cytotoxicity assay) was > 250 µM.
For `N=c1c2cnn(-c3ccccc3)c2ncn1NC(=S)Nc1ccccc1` [Hit 15], the inhibition at 100 µM [1] was ≥ 50%, the IC50 [1, 6] was 123 ± 16 µM and the EC50 (DENV-2 NGC strain; [7]) was > 100 µM. The “SI (selectivity index)” value (DENV-2 NGC strain; selected hits) was >3 and the CC50 at 72 h (MTT cytotoxicity assay) was > 250 µM.
With `NC(=O)COc1ccc(CNC(=O)Nc2ccc(Cl)cc2)cc1` [Hit 29] the inhibition at 100 µM [1] was ≥ 50%, the IC50 [1, 6] was 142 ± 26 µM and the EC50 (DENV-2 NGC strain; [7]) was 34.3 ± 9.4 µM. The “SI (selectivity index)” value (DENV-2 NGC strain; selected hits) was 1 and the CC50 at 72 h (MTT cytotoxicity assay) was 35.7 ± 4.9 µM.
With `O=C(NCc1ncc(-c2ccccc2)[nH]1)Nc1ccncc1F` [Hit 30] the inhibition at 100 µM [1] was ≥ 50%, the IC50 [1, 6] was 44.6 ± 8.1 µM and the EC50 (DENV-2 NGC strain; [7]) was 24.6 ± 5.9 µM. For the same compound, the CC50 at 72 h (MTT cytotoxicity assay) was > 250 µM.
In the case of `O=C(CCc1ccccn1)Nc1ccc2[nH]nnc2c1` [Hit 44], the inhibition at 100 µM [1] is reported as ≥ 50%, the IC50 [1, 6] is reported as 78.5 ± 16.4 µM and the EC50 (DENV-2 NGC strain; [7]) is reported as 97.4 ± 12.6 µM. For the same compound, the “SI (selectivity index)” value (DENV-2 NGC strain; selected hits) was >1 and the CC50 at 72 h (MTT cytotoxicity assay) was > 100 µM.
In the case of `N#Cc1nc2c(-c3nc4ccccc4[nH]3)c(N)n(Cc3ccco3)c2nc1C#N` [Hit 47], the inhibition at 100 µM [1] is reported as ≥ 50%, the IC50 [1, 6] is reported as 16.9 ± 2.5 µM and the EC50 (DENV-2 NGC strain; [7]) is reported as 53.5 ± 6.9 µM. For the same compound, the “SI (selectivity index)” value (DENV-2 NGC strain; selected hits) was >5 and the CC50 at 72 h (MTT cytotoxicity assay) was > 250 µM.
With `N#Cc1cn[nH]c1NCc1ccc(OCc2ccccc2)cc1O` [Hit 50] the inhibition at 100 µM [1] was ≥ 50%, the IC50 [1, 6] was 32 ± 6.7 µM and the EC50 (DENV-2 NGC strain; [7]) was 13.4 ± 1.8 µM. The “SI (selectivity index)” value (DENV-2 NGC strain; selected hits) was >19 and the CC50 at 72 h (MTT cytotoxicity assay) was > 250 µM.
For `CC(C)C[C@H](NC(=O)[C@H](C)NC(=O)[C@H](CC(C)C)NC(=O)[C@@H](NC(=O)[C@H](CCC(N)=O)NC(=O)[C@@H](NC(=O)[C@H](CCC(=O)O)NC(=O)[C@H](CCC(=O)O)NC(=O)CNC(=O)[C@H](CCC(=O)O)NC(=O)[C@H](CCCCN)NC(=O)[C@H](Cc1c[nH]c2ccccc12)NC(=O)[C@H](CCC(=O)O)NC(=O)CNC(=O)[C@@H](N)CCC(=O)O)C(C)C)C(C)C)C(=O)O` [NS3_86–100 peptide, reference compound], the “inhibitory effect on NS3-NS5 interaction” value ([1]; up to 480 μM) was “no inhibitory effect”.

Source: PMC12615485, “New dengue virus inhibitors targeting NS3-NS5 interaction identified by in silico screening” (Frontiers in Microbiology, 2025)
